Data set [1] concerns Cor.4U hiPSC-CMs. In words: ATP level (CellTiter-Glo) in hiPSC-CMs. It is filed as cell-based, human. On the technique in general: In ATP-based viability assays light output follows the ATP content of the culture.
For another data set, the system named is HELP hiPSC-CMs. In words: CardioExcyte 96 microelectrode array: base impedance and extracellular field potential. The note with it: fixed doses: 10 µM, crizotinib and ponatinib 3.16 µM; up to 24 h. The class given is cell-based, human. In short, it runs like this: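 HELP hiPSC-CMs plated at 50,000 cells/well on 96-well microelectrode arrays, cultured 3-5 days until impedance and field potential stabilized. Recordings before and every 30~60 min after drug addition (added at 2x); beat rate, impedance amplitude, base impedance and FPDc averaged over 3 wells.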

For the next data set, the system named is ER stress genes in NRCMs. In words: qRT-PCR of ER stress genes in NRCMs. It is filed as cell-based, rat. The note with it: afatinib 5.62 µM, sorafenib 3.16 μM, ponatinib 1.78 μM.
Another data set deals with TNNT2 protein in NRCMs. In words: TNNT2 immunofluorescence. It is filed as cell-based, rat. The note with it: 24 h; 10 µM afatinib, 10 µM sorafenib, 5.62 µM ponatinib. Here is the method:
Cells cultured in multi-well plates were fixed with 4% paraformaldehyde (Sigma) for 30 minutes at room temperature, washed 3 times with PBS, and permeabilized with 0.2% Tritonx100 (Applygen) for 15 minutes. Then, cells were blocked with 5% normal goat serum (Bioss) for 1-hr at room temperature and probed with primary antibodies against TNNT2 (proteintech) or NF-κB (CST) overnight at 4°C. Secondary antibodies (Jackson Immuno Research Laboratories, Inc.) and 0.4ug/mL DAPI (Coolaber) were applied at room temperature for 1 hour. Immunofluorescence pictures were taken by ImageXpress Micro Confocal-AWES (Molecular Devices).

The test system of data set [2] is Cor.4U hiPSC-CMs. The arrangement: method as in GSE114686. The note with it: ref GSE114686, cited from earlier work.
Another data set deals with patients. The note with it: cited from earlier work.
Data set [3] concerns Cor.4U hiPSC-CMs. In words: 3'DGE-UMI RNAseq transcriptome of hiPSC-CMs.
The next data set concerns Sprague-Dawley rats. In words: Rat gavage cardiotoxicity model: survival, heart and body weight. The note with it: day 7; ponatinib 15 mg/kg, sorafenib 50 mg/kg gavage once daily.

SMILES strings stand for the structures. Like-named read-outs stand apart in the source and are kept apart here.

Description for Sprague-Dawley rats: All experiments were performed in accordance with relevant guidelines and regulations approved by the Institutional Animal Care and Use Committee (IACUC) at Peking University Health Science Center. Sprague-Dawley rats (170-200g) were purchased from Beijing Vital River Laboratory Animal Technology. Forty-eight male rats were randomly divided into six groups, with 8 animals per group. […] The gavage was done daily starting at 10am. At the end of the experiments, rats were euthanized by CO2 about 5~6 hours after the last gavage, and then hearts were harvested for further study. Left ventricular muscle was dissected and divided into 3 parts with similar size, one of which was used for RNA extraction and qRT-PCR.

On to `CNC(=O)c1cc(Oc2ccc(NC(=O)Nc3ccc(Cl)c(C(F)(F)F)c3)cc2)ccn1` [sorafenib], for which the “effect on ATP levels” value in the data set with Cor.4U hiPSC-CMs [1] (0.32 to 10 µM, day 1 to day 5) is “slight increase in the ATP level at day 1, but decrease at day 5”. For the same molecule, in the data set with Cor.4U hiPSC-CMs [1] (day 5), the “EC50 (ATP) compared with maximal plasma concentration (Cmax)” value is “lower than or similar to their maximal plasma concentrations (Cmax)”. Also, the “effect on beat rate, contraction, base impedance and corrected field potential duration” value in the data set on HELP hiPSC-CMs is “stopped beating and contraction of hiPSC-CMs after 0.5 h of treatment”. Further, the “temporal activation of ER stress genes, 72 versus 24 h” value in the data set with ER stress genes in NRCMs is “most gene targets of ER stress were downregulated over time”. Moreover, the “TNNT2 protein (cardiac Troponin T2)” value in the data set with TNNT2 protein in NRCMs is “had the most effect”. In the data set on Cor.4U hiPSC-CMs [2] (Sorafenib 3.16 µM 168 hours), the “CHAC1 logFC” value was 3.62, the “DDIT3 logFC” value was 4.28, the “DNAJB9 logFC” value is given as 1 and the “TRIB3 logFC” value is reported as 5.51. The “XBP1 logFC” value in the data set on Cor.4U hiPSC-CMs [2] (Sorafenib 3.16 µM 168 hours) was 1.42. In the data set with Cor.4U hiPSC-CMs [2] (Sorafenib 10 µM 24 hours), the “CHAC1 logFC” value is reported as 4.55, the “DDIT3 logFC” value is listed as 4.73, the “DNAJB9 logFC” value is on record as 1.43 and the “TRIB3 logFC” value is 5.56. Moreover, the “XBP1 logFC” value in the data set with Cor.4U hiPSC-CMs [2] (Sorafenib 10 µM 24 hours) is on record as 1.79. In the data set on patients (clinical trials), the myocardial ischemia is given as 2.7–3%. Besides, the “level of cardiotoxicity based on literature reports” value in the data set on patients (ref Table S1, 2, 4, 26–36) was “high-levels of cardiotoxicity”. Moreover, the “expression of tRNA aminoacylation gene markers (SARS, GARS)” value in the data set with Cor.4U hiPSC-CMs [3] (Cluster 3) is recorded as “increased”. In the data set on Cor.4U hiPSC-CMs [3] (high PC1 loadings, ponatinib at high dose), the “expression of genes associated with ER stress (ATF4, NUPR1, DDIT3, TRIB3, CHAC1, SESN2, HERPUD1)” value is recorded as “upregulated”. Besides, the “heart or body weight” value in the data set on Sprague-Dawley rats is given as “not changed”.

Source of the values: article PMC10108821, “Three tyrosine kinase inhibitors cause cardiotoxicity by inducing endoplasmic reticulum stress and inflammation in cardiomyocytes” (BMC Medicine, 2023).
